Reference: patent publication US9475839B2, “Peptide-based inhibitor of interleukin-10 or interferon-gamma signaling” (THE UNITED STATES OF AMERICA, AS REPRESENTED BY THE …, priority 2010, dated 2016)
Like-named read-outs stand apart in the source and are kept apart here. Positions of bridges follow the written chain, without caps; N, C: chain ends. Non-standard residues stand in square brackets, D forms with d. Residues, ends and D or L forms follow the SMILES beside them. Chains are numbered I, II in the order given. ξ: configuration not given here. *: point of attachment. C(fluorescein) = cysteine carrying a fluorescein label; Palmitoyl = CCCCCCCCCCCCCCCC(=O)*; PEG4 = NCCOCCOCCOCCOCCC(=O)O; Nle = CCCC[C@H](N)C(=O)O; Aib = CC(C)(N)C(=O)O; ξK = NCCCCC(N)C(=O)O

Columns and labels:
mouse mast MC/9 cells = assay: Inhibition of IL10-dependent growth of MC/9 cells, MTT assay, 48 hours; assay type: cell-based
Description: (§1) Cells were exposed to compounds for 48 hours and cell number was determined with the help of MTT assay.
(§2) Cells were exposed to IL10-HF-1 for 48 hours and cell number was determined with the help of MTT assay.
(§3) Peptides designed to mimic conserved regions of the receptor sequences were tested for the ability to inhibit IL10 and IFN-gamma signaling. Inhibition of IL10 signaling was tested in a mouse mast cell line MC/9. […] Abrogation of IFN-gamma signaling or STAT1 activation causes cell death in this cell line.

[1] = tested on: MDA-MB-231 breast cancer cells; assay: Inhibition of IFN-gamma-dependent growth of MDA-MB-231 cells, MTT assay, 48 hours; assay type: cell-based; settings: 48 h
Description: as §1, §2, §3

[2] = biological target: T1, recombinant human IFN-gamma (Homo sapiens, UniProt P01579); assay: Microscale thermophoresis binding to IFN-gamma; settings: result in words
T1 sequence (P01579 24-161 limits assumed): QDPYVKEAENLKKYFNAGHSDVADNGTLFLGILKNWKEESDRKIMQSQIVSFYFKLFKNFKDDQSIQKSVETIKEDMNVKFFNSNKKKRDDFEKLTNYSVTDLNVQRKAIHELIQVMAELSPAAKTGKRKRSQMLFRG
Description: To evaluate whether synthetic helix F analogs could interact with the corresponding cytokine, fluorescent derivatives of helix F were synthesized. The helix F analogs are described below.

[3] = Table 4, compounds mimicking conserved regions of IL10R1, cell line not given, read-out: GI50

## CCCC[C@H](NC(=O)[C@H](Cc1ccc(O)cc1)NC(=O)[C@H](C)NC(=O)[C@H](CCC(=O)O)NC(=O)[C@@H](NC(=O)[C@H](Cc1ccc(O)cc1)NC(=O)[C@H](CC(N)=O)NC(=O)[C@@H](NC(=O)[C@H](Cc1ccccc1)NC(=O)[C@@H](NC(=O)[C@H](CC(=O)O)NC(=O)[C@H](Cc1ccccc1)NC(=O)[C@H](CCC(=O)O)NC(=O)[C@H](CO)NC(=O)C(C)(C)NC(C)=O)[C@@H](C)CC)[C@@H](C)CC)[C@@H](C)CC)C(=O)NCCOCCOCCOCCOCCC(=O)NCCCCC(NC(=O)CCOCCOCCOCCOCCNC(=O)[C@H](CCCC)NC(=O)[C@H](Cc1ccc(O)cc1)NC(=O)[C@H](C)NC(=O)[C@H](CCC(=O)O)NC(=O)[C@@H](NC(=O)[C@H](Cc1ccc(O)cc1)NC(=O)[C@H](CC(N)=O)NC(=O)[C@@H](NC(=O)[C@H](Cc1ccccc1)NC(=O)[C@@H](NC(=O)[C@H](CC(=O)O)NC(=O)[C@H](Cc1ccccc1)NC(=O)[C@H](CCC(=O)O)NC(=O)[C@H](CO)NC(=O)C(C)(C)NC(C)=O)[C@@H](C)CC)[C@@H](C)CC)[C@@H](C)CC)C(N)=O (stereo partly shown) [IL10-HF-1] (I: Ac-[Aib]SEFDIFINYIEAY[Nle][PEG4][ξK]-NH2 / II: Ac-[Aib]SEFDIFINYIEAY[Nle][PEG4]; amide I:17-II:C)
Mouse mast MC/9 cells; FIG. 2, 48 hours exposure, MTT assay, read-out: GI50, IL10 dependent growth of MC/9
  GI50: 0.05 µM

## CCCCCCCCCCCCCCCC(=O)N[C@@H](CC(C)C)C(=O)N[C@@H](Cc1ccc(O)cc1)C(=O)N[C@H](C(=O)N[C@@H](CCCNC(=N)N)C(=O)N[C@@H](CCCNC(=N)N)C(=O)N[C@@H](CCCNC(=N)N)C(=O)N[C@@H](CCCCN)C(=O)N[C@@H](CCCCN)C(=O)N[C@@H](CC(C)C)C(=O)N1CCC[C@H]1C(=O)N[C@@H](CO)C(=O)N[C@H](C(=O)N[C@@H](CC(C)C)C(=O)N[C@@H](CC(C)C)C(=O)N[C@@H](Cc1ccccc1)C(=O)N[C@@H](CCCCN)C(=O)N[C@@H](CCCCN)C(N)=O)C(C)C)C(C)C [IL10R1-1, Pal-LYVRRRKKLPSVLLFKK-NH2] (Palmitoyl-LYVRRRKKLPSVLLFKK-NH2)
[1]
  GI50: 0.025 µM
Mouse mast MC/9 cells; 48 h
  GI50: 1 µM

## CCCCCCCCCCCCCCCC(=O)NCCCC[C@H](N)C(=O)N[C@@H](CCCCN)C(=O)N[C@@H](CC(C)C)C(=O)N1CCC[C@H]1C(=O)N[C@@H](CO)C(=O)N[C@H](C(=O)N[C@@H](CC(C)C)C(=O)N[C@@H](CC(C)C)C(=O)N[C@@H](Cc1ccccc1)C(=O)N[C@@H](CCCCN)C(=O)N[C@@H](CCCCN)C(=O)N1CCC[C@H]1C(=O)N[C@@H](CO)C(N)=O)C(C)C [IL10R1-3, ε-Pal-KKLPSVLLFKKPS-NH2] (H-K(Palmitoyl)KLPSVLLFKKPS-NH2; N-terminus assumed)
[1]
  GI50: 2.5 µM
Mouse mast MC/9 cells; 48 h
  GI50: 0.05 µM

## CCCCCCCCCCCCCCCC(=O)N[C@@H](CC(C)C)C(=O)N[C@@H](Cc1c[nH]cn1)C(=O)NCC(=O)N[C@@H](CO)C(=O)N[C@H](C(=O)N[C@@H](CC(=O)O)C(=O)N[C@@H](CO)C(=O)NCC(=O)N[C@@H](Cc1ccccc1)C(=O)NCC(=O)N[C@@H](CO)C(=O)N[C@H](C(=O)N[C@@H](CCCCN)C(=O)N1CCC[C@H]1C(=O)N[C@@H](CO)C(=O)N[C@@H](CC(C)C)C(=O)N[C@@H](CCC(N)=O)C(=O)N[C@H](C(=O)O)[C@@H](C)O)[C@@H](C)O)[C@@H](C)O [IL10R1-5, Pal-LHGSTDSGFGSTKPSLQT] (Palmitoyl-LHGSTDSGFGSTKPSLQT-OH; N-terminus and C-terminus assumed)
Mouse mast MC/9 cells; 48 h
  GI50: 1 µM

## CCCCCCCCCCCCCCCC(=O)NCCCC[C@H](N)C(=O)N[C@@H](CC(C)C)C(=O)N[C@H](C(=O)N[C@H](C(=O)N[C@@H](CC(C)C)C(=O)N1CCC[C@H]1C(=O)N[C@@H](CC(C)C)C(=O)N[C@H](C(=O)N[C@@H](CO)C(=O)N[C@@H](CO)C(=O)N[C@@H](CC(C)C)C(=O)N[C@@H](CCC(N)=O)C(=O)N[C@@H](CO)C(=O)N[C@@H](CO)C(=O)N[C@@H](CCC(=O)O)C(N)=O)[C@@H](C)CC)[C@@H](C)O)C(C)C [IL10R1-7, ε-Pal-KLVTLPLISSLQSSE-NH2] (H-K(Palmitoyl)LVTLPLISSLQSSE-NH2; N-terminus assumed)
Mouse mast MC/9 cells; 48 h
  GI50: 5 µM

## CCCCCCCCCCCCCCCC(=O)NCCCC[C@H](N)C(=O)N1CCC[C@H]1C(=O)N1CCC[C@H]1C(=O)N[C@@H](C)C(=O)N[C@@H](CC(C)C)C(=O)N[C@@H](C)C(=O)N[C@@H](CCCCN)C(=O)NCC(=O)N[C@@H](Cc1ccc(O)cc1)C(=O)N[C@@H](CC(C)C)C(=O)N[C@@H](CCCCN)C(=O)N[C@@H](CCC(N)=O)C(N)=O [IL10R1-8, ε-Pal-KPPALAKGYLKQ-NH2] (H-K(Palmitoyl)PPALAKGYLKQ-NH2; N-terminus assumed)
Mouse mast MC/9 cells; 48 h
  GI50: 5 µM

## CCCCCCCCCCCCCCCC(=O)NCCCC[C@@H](NC(=O)[C@@H](CC(C)C)NC(=O)[C@@H](Cc1c[nH]cn1)NC(=O)CNC(=O)[C@@H](CO)NC(=O)[C@H](NC(=O)[C@@H](CC(=O)O)NC(=O)[C@@H](CO)NC(=O)CNC(=O)[C@@H](Cc1ccccc1)NC(=O)CNC(=O)[C@@H](CO)NC(=O)[C@H](NC(=O)[C@@H](CCCCN)NC(=O)[C@H]1CCCN1C(=O)[C@@H](CO)NC(=O)[C@@H](CC(C)C)NC(=O)[C@@H](CCC(N)=O)NC(=O)[C@H](NC(=O)[C@@H](CCC(=O)O)NC(=O)[C@@H](CCC(=O)O)NC(C)=O)[C@H](C)O)[C@H](C)O)[C@H](C)O)C(N)=O [IL10R1-14] (Ac-[dE][dE][dT][dQ][dL][dS][dP][dK][dT][dS]G[dF]G[dS][dD][dT][dS]G[dH][dL][dK](Palmitoyl)-NH2; C-terminus assumed)
Mouse mast MC/9 cells; [3]
  GI50: 1 µM

## CCCCCCCCCCCCCCCC(=O)NCCCC[C@@H](NC(=O)[C@@H](CC(C)C)NC(=O)[C@@H](Cc1c[nH]cn1)NC(=O)CNC(=O)[C@@H](CO)NC(=O)[C@H](NC(=O)[C@@H](CC(=O)O)NC(=O)[C@@H](CO)NC(=O)CNC(=O)[C@@H](Cc1ccccc1)NC(=O)CNC(=O)[C@@H](CO)NC(=O)[C@H](NC(=O)[C@@H](CCCCN)NC(=O)[C@H]1CCCN1C(=O)[C@@H](CO)NC(=O)[C@@H](CC(C)C)NC(=O)[C@@H](CCC(N)=O)NC(=O)[C@H](NC(=O)[C@@H](CCC(=O)O)NC(C)=O)[C@H](C)O)[C@H](C)O)[C@H](C)O)C(N)=O [IL10R1-15] (Ac-[dE][dT][dQ][dL][dS][dP][dK][dT][dS]G[dF]G[dS][dD][dT][dS]G[dH][dL][dK](Palmitoyl)-NH2; C-terminus assumed)
Mouse mast MC/9 cells; [3]
  GI50: > 5 µM

## CCCCCCCCCCCCCCCC(=O)NCCCC[C@@H](N)C(=O)N[C@@H](C(=O)N[C@H](CCC(N)=O)C(=O)N[C@H](CC(C)C)C(=O)N[C@H](CO)C(=O)N1CCC[C@@H]1C(=O)N[C@H](CCCCN)C(=O)N[C@@H](C(=O)N[C@H](CO)C(=O)NCC(=O)N[C@H](Cc1ccccc1)C(=O)NCC(=O)N[C@H](CO)C(=O)N[C@H](CC(=O)O)C(=O)N[C@@H](C(=O)N[C@H](CO)C(=O)NCC(=O)N[C@H](Cc1c[nH]cn1)C(=O)N[C@H](CC(C)C)C(N)=O)[C@H](C)O)[C@H](C)O)[C@H](C)O [IL10R1-17, ε-Pal-KTQLSPKTSGFGSDTSGHL-NH2] (H-[dK](Palmitoyl)[dT][dQ][dL][dS][dP][dK][dT][dS]G[dF]G[dS][dD][dT][dS]G[dH][dL]-NH2; N-terminus assumed)
Mouse mast MC/9 cells; [3]
  GI50: > 5 µM

## CCCCCCCCCCCCCCCC(=O)NCCCC[C@H](N)C(=O)N[C@@H](CC(C)C)C(=O)N[C@H](C(=O)N[C@H](C(=O)N[C@@H](CC(C)C)C(=O)N1CCC[C@H]1C(=O)N[C@@H](CC(C)C)C(=O)N[C@H](C(=O)N[C@@H](CO)C(=O)N[C@@H](CO)C(=O)N[C@@H](CC(C)C)C(=O)N[C@@H](CCC(N)=O)C(N)=O)[C@@H](C)CC)[C@@H](C)O)C(C)C [IL10R1-27, ε-Pal-KLVTLPLISSLQ-NH2] (H-K(Palmitoyl)LVTLPLISSLQ-NH2; N-terminus assumed)
Mouse mast MC/9 cells; 48 h
  GI50: > 5 µM

## Ac-C(Fluo)VQRKAIHELIQVx^13AELSPAAKT-NH2 ({Ac-C(fluorescein)}-VQRKAIHELIQV[Nle]AELSPAAKT-NH2) [IFNG-HF-6]
[2]
  Affinity for IFN-gamma: unexpectedly high affinity
